Assay: xn = mol fraction of the nth substance listed

C=CC(=O)OC + CCCCCO
viscosity [mPa·s], 101.33 kPa
Settings	308.15 K	318.15 K
x1 = 0.0469	2.288	1.82
x1 = 0.148	1.725	1.406
x1 = 0.2501	1.327	1.104
x1 = 0.3489	1.053	0.89
x1 = 0.4436	0.86	0.735
x1 = 0.5084	0.758	0.651
x1 = 0.545	0.708	0.61
x1 = 0.6489	0.594	0.514
x1 = 0.7484	0.513	0.445
x1 = 0.8456	0.454	0.392
x1 = 0.9477	0.409	0.35

CCCCCOC(C)=O + Oc1ccccc1
Settings	viscosity [mPa·s]
298.15 K, 101 kPa, x2 = 0.5	1.105

Cc1ccccc1O + c1ccccc1
viscosity [mPa·s]
Settings	298.15 K	308.15 K	318.15 K	323.15 K
101 kPa, x1 = 0.1176	–	0.641	–	–
101 kPa, x1 = 0.2203	–	0.7752	–	–
101 kPa, x1 = 0.3357	–	0.9753	–	–
101 kPa, x1 = 0.4352	–	1.164	–	–
101 kPa, x1 = 0.5693	–	1.535	–	–
101 kPa, x1 = 0.6728	–	2.109	–	–
101 kPa, x1 = 0.7757	–	2.775	–	–
101 kPa, x1 = 0.896	–	3.774	–	–
101.33 kPa, x1 = 0.1	0.704	0.609	0.531	0.497
101.33 kPa, x1 = 0.2	0.849	0.727	0.623	0.578
101.33 kPa, x1 = 0.4	1.319	1.073	0.894	0.815
101.33 kPa, x1 = 0.5	1.661	1.334	1.084	0.981
101.33 kPa, x1 = 0.6	2.148	1.668	1.331	1.186
101.33 kPa, x1 = 0.8	3.874	2.766	2.067	1.807

CCCCCOC(C)=O + ClCCCl
303.15 K, 101.3 kPa
Settings	viscosity [mPa·s]
x1 = 0.1052	0.7366
x1 = 0.196	0.7444
x1 = 0.303	0.7582
x1 = 0.4004	0.7651
x1 = 0.4924	0.7693
x1 = 0.5994	0.7716
x1 = 0.702	0.7686
x1 = 0.805	0.762
x1 = 0.8946	0.7597

CC(C)CO + CCCCCCCCCC
viscosity [mPa·s], 100 kPa
Settings	x2 = 0.1004	x2 = 0.1999	x2 = 0.3	x2 = 0.3999	x2 = 0.5002	x2 = 0.5996	x2 = 0.7006	x2 = 0.8	x2 = 0.9
293.15 K	2.872	2.191	1.749	1.456	1.254	1.117	1.024	0.966	0.933
298.15 K	2.471	1.906	–	–	1.131	–	0.941	0.893	0.863
303.15 K	2.139	1.673	1.368	1.165	1.027	0.932	0.869	0.828	0.803
308.15 K	1.863	1.476	1.221	1.051	0.937	0.857	0.806	0.771	0.75
313.15 K	1.632	1.309	1.095	0.954	0.859	0.793	0.749	0.72	0.702
318.15 K	1.436	1.167	0.989	0.871	0.791	0.736	0.699	0.674	0.66
323.15 K	1.272	1.046	0.897	0.798	0.732	0.686	0.654	0.634	0.622

ClCC(Cl)Cl + N#CCc1ccccc1
Settings	viscosity [mPa·s]
303.15 K, 101 kPa, x2 = 0.3463	1.365

CCCCCC + CCO
298.15 K
Settings	viscosity [mPa·s]
100 kPa, x1 = 0.0432	0.9721
100 kPa, x1 = 0.1024	0.848
100 kPa, x1 = 0.1981	0.702
100 kPa, x1 = 0.3027	0.5885
100 kPa, x1 = 0.4066	0.5026
100 kPa, x1 = 0.5031	0.439
100 kPa, x1 = 0.5999	0.3881
100 kPa, x1 = 0.7007	0.3479
100 kPa, x1 = 0.8026	0.3191
100 kPa, x1 = 0.8955	0.3025
100 kPa, x1 = 0.971	0.2965
101 kPa, x1 = 0.0149	1.046
101 kPa, x2 = 0.1035	0.3031
101 kPa, x2 = 0.1286	0.306
101 kPa, x2 = 0.2846	0.3322
101 kPa, x2 = 0.3428	0.3666
101 kPa, x2 = 0.4373	0.4133
101 kPa, x2 = 0.4727	0.4249
101 kPa, x2 = 0.533	0.4651
101 kPa, x2 = 0.5802	0.4994
101 kPa, x2 = 0.6757	0.5717
101 kPa, x2 = 0.7394	0.6511
101 kPa, x2 = 0.8689	0.8184
101 kPa, x2 = 0.8995	0.8715
101 kPa, x2 = 0.9793	1.033
101.33 kPa, x2 = 0.0569	0.315
101.33 kPa, x2 = 0.1499	0.325
101.33 kPa, x2 = 0.2731	0.363
101.33 kPa, x2 = 0.439	0.438
101.33 kPa, x2 = 0.5984	0.528
101.33 kPa, x2 = 0.7241	0.632
101.33 kPa, x2 = 0.8282	0.757
101.33 kPa, x2 = 0.9076	0.895
101.33 kPa, x2 = 0.9673	1.022

OCCOCCOCCOCCOCCOCCOCCOCCOCCO + O
viscosity [mPa·s], 100 kPa
Settings	293.15 K	298.15 K	303.15 K	308.15 K	313.15 K	318.15 K	323.15 K
x2 = 0.093	124.5	93.99	72.59	57.45	46.04	37.51	30.97
x2 = 0.12	121.6	92.08	71.18	56.4	45.22	36.83	30.41
x2 = 0.187	120.7	91.49	70.11	55.25	44.27	36.03	29.76
x2 = 0.256	117.4	88.73	68.34	54.28	43.47	35.36	29.19

CCCCCOC(C)=O + CC(=O)O
viscosity [mPa·s], 101 kPa
Settings	x1 = 0.0945	x1 = 0.2018	x1 = 0.3035	x1 = 0.4048	x1 = 0.4599	x1 = 0.5117	x1 = 0.6074	x1 = 0.6957	x1 = 0.7878	x1 = 0.8912
298.15 K	1.055	1.049	0.994	0.978	1.002	1.006	0.98	0.974	0.917	0.881
313.15 K	0.853	0.831	0.799	0.781	0.797	0.798	0.777	0.772	0.734	0.708

CCOC(=O)CC + CO
303.15 K, 101.33 kPa
Settings	viscosity [mPa·s]
x1 = 0.1102	0.524
x1 = 0.1551	0.525
x1 = 0.2735	0.526
x1 = 0.3189	0.527
x1 = 0.3721	0.528
x1 = 0.4967	0.527
x1 = 0.5395	0.524
x1 = 0.613	0.521
x1 = 0.6625	0.518
x1 = 0.7231	0.514
x1 = 0.8087	0.508
x1 = 0.9141	0.501

C=CC(=O)OC + CCCO
viscosity [mPa·s], 101.33 kPa
Settings	308.15 K	318.15 K
x1 = 0.0501	1.354	1.107
x1 = 0.1464	1.081	0.916
x1 = 0.2331	0.9	0.782
x1 = 0.3469	0.727	0.648
x1 = 0.4436	0.622	0.561
x1 = 0.5011	0.572	0.519
x1 = 0.5436	0.541	0.492
x1 = 0.6429	0.483	0.439
x1 = 0.7442	0.441	0.397
x1 = 0.8449	0.413	0.365
x1 = 0.9424	0.396	0.343

CCCCCOC(C)=O + OCc1ccccc1
Settings	viscosity [mPa·s]
298.15 K, 101 kPa, x1 = 0.5	1.035

CC1CCC(C)O1 (stereo unspecified) + ClC1CCCCC1
viscosity [mPa·s], 101.3 kPa
Settings	x1 = 0.0973	x1 = 0.2014	x1 = 0.3026	x1 = 0.3986	x1 = 0.4986	x1 = 0.6031	x1 = 0.7002	x1 = 0.7977	x1 = 0.8986
298.15 K	1.36	1.179	1.033	0.9191	0.818	0.7279	0.6563	0.5937	0.5366
313.15 K	1.073	0.9412	0.8337	0.7486	0.6724	0.6054	0.551	0.499	0.452

C=CC(=O)OC + CCCCC(C)O
viscosity [mPa·s], 101 kPa
Settings	298.15 K	308.15 K
x1 = 0.05507	3.631	2.614
x1 = 0.1	3.287	2.387
x1 = 0.1554	2.908	2.136
x1 = 0.1998	2.636	1.953
x1 = 0.2554	2.331	1.746
x1 = 0.2999	2.112	1.596
x1 = 0.3554	1.868	1.428
x1 = 0.3999	1.693	1.305
x1 = 0.4555	1.497	1.167
x1 = 0.4999	1.357	1.067
x1 = 0.5554	1.2	0.954
x1 = 0.5999	1.088	0.872
x1 = 0.6551	0.963	0.781
x1 = 0.7	0.872	0.713
x1 = 0.755	0.772	0.638
x1 = 0.7998	0.699	0.583
x1 = 0.8555	0.618	0.522
x1 = 0.8999	0.56	0.477
x1 = 0.9555	0.495	0.426

C=CC(=O)OC + CCCCCCCCCCO
viscosity [mPa·s], 101.3 kPa
Settings	x1 = 0.1056	x1 = 0.2709	x1 = 0.3442	x1 = 0.4717	x1 = 0.5843	x1 = 0.7574	x1 = 0.8309	x1 = 0.8923	x1 = 0.9483	x1 = 0.9749
298.15 K	7.732	4.826	3.593	2.331	1.712	0.938	0.738	0.639	0.519	0.482
308.15 K	5.659	3.531	2.828	1.792	1.425	0.804	0.641	0.54	0.459	0.432

CCCCCOC(C)=O + COc1ccccc1
Settings	viscosity [mPa·s]
298.15 K, 101 kPa, x2 = 0.5	0.8265

Cc1ccccc1O + Cc1cccc(O)c1
viscosity [mPa·s]
Settings	298.15 K	313.15 K	323.15 K
101 kPa, x1 = 0.1537	12.16	–	–
101 kPa, x1 = 0.3061	11.09	–	–
101 kPa, x1 = 0.3536	10.75	–	–
101 kPa, x1 = 0.3954	10.5	–	–
101 kPa, x1 = 0.506	9.939	–	–
101 kPa, x1 = 0.6371	9.208	–	–
101 kPa, x1 = 0.7608	8.582	–	–
101 kPa, x1 = 0.8803	8.086	–	–
101.3 kPa, x2 = 0.1	–	4.379	3.086
101.3 kPa, x2 = 0.2	–	4.539	3.145
101.3 kPa, x2 = 0.3	–	4.689	3.235
101.3 kPa, x2 = 0.4	–	4.861	3.32
101.3 kPa, x2 = 0.5	–	5.048	3.417
101.3 kPa, x2 = 0.6	–	5.248	3.543
101.3 kPa, x2 = 0.7	–	5.462	3.666
101.3 kPa, x2 = 0.8	–	5.693	3.805
101.3 kPa, x2 = 0.9	–	5.966	3.949

C=CC(=O)OC + CCCCn1cc[n+](C)c1.F[B-](F)(F)F
303.15 K, 101 kPa
Settings	viscosity [mPa·s]
x2 = 0.5005	16.06
x2 = 0.9242	63.95

C1CCC2=[NH+]CCCN2CC1.c1nc[n-]n1 + CC(C)O
303.15 K, 100 kPa
Settings	viscosity [mPa·s]
x1 = 0.1001	7.85
x1 = 0.2	11.12
x1 = 0.2999	23.38
x1 = 0.4003	47.5
x1 = 0.4989	98.71
x1 = 0.6002	185.2
x1 = 0.7008	298.3
x1 = 0.7993	439.8
x1 = 0.9002	746.1

ClCC(Cl)Cl + CC(C)=O
298.15 K, 101 kPa
Settings	viscosity [mPa·s]
x2 = 0.212	0.91
x2 = 0.366	0.799
x2 = 0.497	0.677
x2 = 0.611	0.577
x2 = 0.704	0.509
x2 = 0.779	0.456
x2 = 0.837	0.411
x2 = 0.949	0.347

ClCC(Cl)Cl + O=S1(=O)CCCC1
viscosity [mPa·s], 100 kPa
Settings	x2 = 0.0188	x2 = 0.1215	x2 = 0.2323	x2 = 0.3466	x2 = 0.4454	x2 = 0.5548	x2 = 0.6864	x2 = 0.8249	x2 = 0.9723
303.15 K	1.202	2.163	3.186	4.237	5.137	6.131	7.307	8.528	9.798
308.15 K	1.108	1.937	2.834	3.752	4.539	5.402	6.428	7.489	8.588
313.15 K	1.024	1.754	2.548	3.369	4.069	4.831	5.738	6.671	7.649

Source: the CheMixHub viscosity set
